{
  "source": "patent US20260256792A1",
  "about": "“TREATMENT OF CHRONIC SPONTANEOUS URTICARIA BY ADMINISTERING (R)-2-[3-[4-AMINO-3-(2-FLUORO-4-PHENOXY-PHENYL)PYRAZOLO[3,4-D]PYRIMIDIN-1-YL]PIPERIDINE-1-CARBONYL]-4-METHYL-4-[4-(OXETAN-3-YL)PIPERAZIN-1-YL]PENT-2-ENENITRILE” (priority 2023, published 2026)",
  "origin": "cited, not measured here",
  "test_system": "immune thrombocytopenic purpura (ITP)",
  "settings": "cited from earlier work",
  "data": [
    {"compound": "CC(C)(C=C(C#N)C(=O)N1CCC[C@@H](n2nc(-c3ccc(Oc4ccccc4)cc3F)c3c(N)ncnc32)C1)N1CCN(C2COC2)CC1", "note": "[rilzabrutinib, (R)-2-[3-[4-amino-3-(2-fluoro-4-phenoxy-phenyl)pyrazolo[3,4-d]pyrimidin-1-yl]piperidine-1-carbonyl]-4-methyl-4-[4-(oxetan-3-yl)piperazin-1-yl]pent-2-enenitrile]", "values": [
      {"measurement": "treatment-emergent serious adverse events (TESAEs)", "setting": "ITP Phase 1/2", "result": "no treatment-emergent serious adverse events"},
      {"measurement": "participants achieving the primary response endpoint", "setting": "ITP, treatment for at least 12 weeks", "result": 50, "unit": "%"}
    ]}
  ]
}
